Tests used:
GALAP = assay: greenhouse post-emergence herbicidal activity against GALAP; assay type: in vivo, Galium aparine; conditions: application rate 0.25 kg/ha, scale 0 to 100
Description: (§1) The seeds of the test plants were sown separately for each species. For the post-emergence treatment, the test plants were first grown to a height of 3 to 15 cm, depending on the plant habit, and then treated with the active compounds which had been suspended or emulsified in water. For this purpose, the test plants were either sown directly and grown in the same containers, or they were first grown separately as seedlings and transplanted into the test containers a few days prior to treatment. Depending on the species, the plants were kept at 10-25° C. or 20-35° C. The test period extended over 2 to 4 weeks. During this time, the plants were tended, and their response to the individual treatments was evaluated. Evaluation was carried out using a scale from 0 to 100. 100 means no emergence of the plants, or complete destruction of at least the aerial moieties, and 0 means no damage, or normal course of growth. A good herbicidal activity is given at values of at least 70 and a very good herbicidal activity is given at values of at least 85. The plants used in the greenhouse experiments belonged to the following species: [table]

AMARE = assay: greenhouse post-emergence herbicidal activity against AMARE; assay type: in vivo, Amaranthus retroflexus; conditions: scale 0 to 100
Description: as §1

SETFA = assay: greenhouse post-emergence herbicidal activity against SETFA; assay type: in vivo, Setaria faberi; conditions: application rate 3.0 kg/ha, scale 0 to 100
Description: as §1

CHEAL = assay: greenhouse post-emergence herbicidal activity against CHEAL; assay type: in vivo, Chenopodium album; conditions: scale 0 to 100
Description: as §1

ALOMY = assay: greenhouse post-emergence herbicidal activity against ALOMY; assay type: in vivo, Alopecurus myosuroides; conditions: application rate 3.0 kg/ha, scale 0 to 100
Description: as §1

SETIT = assay: greenhouse pre-emergence herbicidal activity against SETIT; assay type: in vivo, Setaria italica; conditions: application rate 3.0 kg/ha, scale 0 to 100
Description: (§2) The seeds of the test plants were sown separately for each species. For the pre-emergence treatment, the active compounds, which had been suspended or emulsified in water, were applied directly after sowing by means of finely distributing nozzles. The containers were irrigated gently to promote germination and growth and subsequently covered with transparent plastic hoods until the plants had rooted. This cover caused uniform germination of the test plants, unless this has been impaired by the active compounds. Depending on the species, the plants were kept at 10-25° C. or 20-35° C. The test period extended over 2 to 4 weeks. During this time, the plants were tended, and their response to the individual treatments was evaluated. Evaluation was carried out using a scale from 0 to 100. 100 means no emergence of the plants, or complete destruction of at least the aerial moieties, and 0 means no damage, or normal course of growth. A good herbicidal activity is given at values of at least 70 and a very good herbicidal activity is given at values of at least 85. The plants used in the greenhouse experiments belonged to the following species: [table]

ABUTH = assay: greenhouse pre-emergence herbicidal activity against ABUTH; assay type: in vivo, Abutilon theophrasti; conditions: application rate 3.0 kg/ha, scale 0 to 100
Description: as §2

Row | Structure (SMILES) | herbicidal activity against GALAP (GALAP) | herbicidal activity against AMARE (AMARE; application rate 0.25 kg/ha) | herbicidal activity against SETFA (SETFA) | herbicidal activity against CHEAL (CHEAL; application rate 0.25 kg/ha) | herbicidal activity against ALOMY (ALOMY) | herbicidal activity against SETIT (SETIT) | herbicidal activity against ABUTH (ABUTH) | herbicidal activity against AMARE (AMARE; application rate 0.5 kg/ha) | herbicidal activity against CHEAL (CHEAL; application rate 0.5 kg/ha)
1 | COC(=O)C(C(=O)c1ncccc1O)c1ccccc1C(F)(F)F (stereo not drawn) [I-1, methyl 3-(3-hydroxypyridin-2-yl)-3-oxo-2-(2-trifluoromethylphenyl)propionate] | very good (a very good herbicidal activity is given at values of at least 85) | Very good | very good (a very good herbicidal activity is given at values of at least 85) | Very good | good (A good herbicidal activity is given at values of at least 70) | very good (a very good herbicidal activity is given at values of at least 85) | good (A good herbicidal activity is given at values of at least 70) |  | 
2 | COC(=O)C(=C(OC(C)=O)c1ncccc1OC(C)=O)c1ccccc1C(F)(F)F [I-2, methyl 3-acetoxy-3-(3-acetoxypyridin-2-yl)-2-(2-trifluoromethylphenyl)acrylate] |  |  |  |  |  |  |  | Very good | Very good
